Consider nine compounds from US20260000686A1, “CANNABIDIOL COMPOSITIONS FOR THE TREATMENT OF INFLAMMATION” (RevRx, LLC, priority 2019, published 2026).

Structures are written as SMILES.

The test system of the test is patient (joint, muscle, and arthritic aches and pains). Kind of test: Case studies: patient-reported pain relief with topical Cryogel and with previously tried treatments. The class given is in vivo, human.
[1] abbreviates: Case #19: bilateral inflammation of the knees post exercise/running.
Setting [2] is: Case #2: chronic knee pain and muscle soreness.
Where [3] appears, read: Case #7: chronic lower back pain, history of RA.
[4] abbreviates: Case #8: diabetic, peripheral neuropathy pain in feet.
Where [5] appears, read: Case #21: inflammation of the right knee.

Turning to `COc1ccc2cc([C@H](C)C(=O)[O-])ccc2c1.[Na+]` [ALEVER], for the setting “Case #5: sore/stiff neck”, the “relief from previously tried treatment (patient-reported)” value (“relief from previously tried treatment” below) is recorded as “limited relief”.
Consider `Cc1ccc(-c2cc(C(F)(F)F)nn2-c2ccc(S(N)(=O)=O)cc2)cc1` [Celebrex], for which the “relief from previously tried treatment” value under setting [1] is reported as “Limited Relief”.
`CC(C)Cc1ccc(C(C)C(=O)O)cc1` (stereo not shown) [Ibuprofen]: the “relief from previously tried treatment” value is given as “mild pain relief” under setting [2]; “minimal relief” (Case #4: chronic knee pain and muscle soreness); “limit pain relief” under setting [3]; “limit pain relief” under setting [4]; “no relief” (Case #9: quad pain associated with exercise); “No relief” (Case #10: Tennis Elbow of the right elbow). The “relief from previously tried treatment” value runs as follows: (Case #11: upper left trapezius muscle pain) “No relief”; (Case #14: right calf muscle pain) “limited relief”; (Case #15: ankle swelling and soreness) “limited relief”; (Case #16: labrum tear post-surgical repair, pain and soreness) “limited relief”; (Case #17: sciatica nerve pain, upper right hip area) “limited relief”; (Case #18: burning, stinging pain and inflammation in upper right elbow) “limited relief”. The “relief from previously tried treatment” value is “limited relief” under setting [1] and “Limited Relief” under setting [5].
With `CC(C)C[C@H](CN)CC(=O)O` [LYRICA®], the “relief from previously tried treatment” value under setting [4] is “limit pain relief”.
As for `COc1ccc2cc([C@H](C)C(=O)O)ccc2c1` [Naproxen], the “relief from previously tried treatment” value runs as follows: under setting [2], “mild pain relief”; under setting [3], “limit pain relief”; (Case #13: quadricep tear or strain, right leg muscle pain) “limited relief”.
`COc1ccc2c3c1O[C@H]1C(=O)CC[C@@]4(O)[C@@H](C2)N(C)CC[C@]314.Cl` [OxyContin®]: under “Case #1: RA, spinal fusion C3-C4, immediately post-op while taking prescription pain management medication, 1 no-pain, 10 most pain”, the pain score came out at 10.
For the compound `Clc1ccc2nsnc2c1NC1=NCCN1` [Tizanidine], under setting [3], the “relief from previously tried treatment” value is reported as “limit pain relief”.
Take `COc1cccc(C2(O)CCCCC2CN(C)C)c1` (stereo not shown) [Tramadol]: under setting [3], the “relief from previously tried treatment” value was “limit pain relief”.
With `CC(=O)Nc1ccc(O)cc1` [Tylenol], the “relief from previously tried treatment” value under setting [1] was “Limited relief” and the “relief from previously tried treatment” value under setting [5] was “No relief”.
